Laboratory results from PubChem BioAssay (NCI).
Where “and” joins values, the source holds several entries; their conditions need not be identical. Equal entries are not always repeated.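 Five concentrations, 48 hours, 96-well plates. Here, GI50 denotes the concentration required for 50% inhibition of growth. TGI: total growth inhibition.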

Columns and labels:
Experiment in all cases: DTP human tumour cell line panel, 48 h
U251 CNS = test system: U251 CNS
MALME-3M melanoma = test system: MALME-3M melanoma
RXF 393 renal = test system: RXF 393 renal
CAKI-1 renal = test system: CAKI-1 renal
MDA-MB-231 breast = test system: MDA-MB-231 breast
T-47D breast = test system: T-47D breast

Row | Compound | TGI (U251 CNS) | TGI (MALME-3M melanoma) | GI50 (RXF 393 renal) | TGI (RXF 393 renal) | TGI (CAKI-1 renal) | TGI (MDA-MB-231 breast) | TGI (T-47D breast) [µM] | GI50 (U251 CNS) [µM] | GI50 (T-47D breast) [µM] | GI50 (MALME-3M melanoma) [µM] | GI50 (CAKI-1 renal) [µM]
1 | CC1=CC(=O)CC2(C)CCC(C(C)CC(=O)CC(C)C)CC12OO (stereo not drawn) | 31.4 µM and 33.1 µM | > 100 µM and 36.7 µM | 12.5 µM and 32.6 µM | 26.2 µM and > 100 µM | 33.5 µM and 33.4 µM | 29.5 µM and 32.7 µM | – | – | – | – | –
2 | COc1ccc(C2=Nc3c(nc(OC)[nH]c3=O)NC(c3ccccc3)C2)cc1 (stereo not drawn) | 65.6 µM | > 100 µM | – | 63.9 µM | > 100 µM | 53.4 µM | – | – | – | – | –
3 | O=C(NCCN1CCCCC1)c1ccc(Br)cc1 | > 100 µM | > 100 µM | – | > 100 µM | > 100 µM | > 100 µM | > 100 | – | – | – | –
4 | O=C1CN(c2ccccc2)Cc2nc(Cl)ccc2N1 | > 100 µM | > 100 µM | – | > 100 µM | > 100 µM | > 100 µM | > 100 | – | – | – | –
5 | Brc1ccc(C2C3CSc4ccccc4C3=NN2c2ccccc2)cc1 (stereo not drawn) | > 100 µM | > 100 µM | – | > 100 µM | > 100 µM | > 100 µM | 86.3 | – | – | – | –
6 | O=C1CCN2c3ccccc3[C@H]3Cc4cccc(c4[C@@H]2C3)CCO1 | > 100 µM | > 100 µM | – | > 100 µM | > 100 µM | > 100 µM | > 100 | – | – | – | –
7 | CC(C)Oc1c(C2(c3ccccc3)SCCCS2)c(=O)c1=O | > 100 µM | – | – | > 100 µM | > 100 µM | > 100 µM | > 100 | – | – | – | –
8 | C1CNOCCCONCCCNOCCCONC1 | > 100 µM | 99.2 µM | – | 64.2 µM | > 100 µM | 79.6 µM | 44.4 | – | – | – | –
9 | CC(C)OC(=O)c1ccc(NCc2cc(O)ccc2O)cc1 | 17.1 µM | 5.2 µM | – | 5.79 µM | 2.81 µM | 9.59 µM | 4.66 | – | – | – | –
10 | CC1=NN(c2nc(N)nc(NS(=O)(=O)c3cc(C)c(Cl)cc3S)n2)C(C)(C)C1 | > 10 µM | > 10 µM | – | > 10 µM | > 10 µM | – | > 10 | – | – | – | –
11 | Cc1ccc(/C=C2\Sc3scc(-c4ccccc4)[n+]3C2=O)cc1 | 47.5 µM | – | – | 90.2 µM | 33.4 µM | 65 µM | > 100 | – | – | – | –
12 | COc1ccc(Nc2nc3ccccc3n3cccc23)cc1OC | 35.9 µM | 32.9 µM | – | 33.1 µM | 89.1 µM | 40.1 µM | 15.2 | – | – | – | –
13 | CC1(C)C2CCC3CC(CCC#N)CCC3C21C#N (stereo not drawn) | > 100 µM | > 100 µM | – | > 100 µM | > 100 µM | > 100 µM | > 100 | – | – | – | –
14 | C#CC[C@@H]1C(=O)N(Cc2ccc(OC)cc2)[C@@H](C(C)C)C(=O)N1Cc1ccc(OC)cc1 | > 100 µM | > 100 µM | – | 25.6 µM | > 100 µM | > 100 µM | 51.1 | – | – | – | –
15 | CO/C(N)=C(\C#N)N=Cc1ccc2ccccc2c1 | > 100 µM | > 100 µM | – | > 100 µM | > 100 µM | > 100 µM | > 100 | – | – | – | –
16 | CC1=NN=C(C)C1N=Nc1ccc2nc(C)[nH]c2c1 | > 100 µM | > 50.5 µM | – | 55.5 µM | > 44.7 µM | > 88.2 µM | 54.8 | – | – | – | –

Row | Compound | TGI (U251 CNS) | TGI (MALME-3M melanoma) | GI50 (RXF 393 renal) | TGI (RXF 393 renal) | TGI (CAKI-1 renal) | TGI (MDA-MB-231 breast) | TGI (T-47D breast) [µM] | GI50 (U251 CNS) [µM] | GI50 (T-47D breast) [µM] | GI50 (MALME-3M melanoma) [µM] | GI50 (CAKI-1 renal) [µM]
17 | CC(C)[C@@H]1CC[C@@H](C)C[C@H]1OC(=O)c1c2n(c3ccccc13)C[C@H]1OC(C)(C)O[C@@H]21 | 32.5 µM | > 100 µM | – | 82.9 µM | 87.3 µM | > 100 µM | > 100 | – | – | – | –
18 | CCN(CC)CCCNc1c2c(Cl)cc(Cl)cc2nc2nc(=O)[nH]c(C)c12 | 33.9 µM | > 100 µM | – | > 100 µM | > 100 µM | 33.8 µM | > 100 | – | – | – | –
19 | Cn1c(=O)c2[nH]c(N=O)nc2n(C)c1=O | > 100 µM | > 100 µM | – | > 100 µM | > 100 µM | > 100 µM | > 100 | – | – | – | –
20 | NS(=O)(=O)c1ccc(NC(=O)N/N=C/c2ccccc2O)cc1 | > 100 µM | > 100 µM | – | > 100 µM | > 100 µM | > 100 µM | > 100 | – | – | – | –
21 | CCOC(=O)N/N=C(/N)c1cccc(Br)c1 | – | > 100 µM | – | > 100 µM | > 100 µM | > 100 µM | > 100 | – | – | – | –
22 | COc1nc(N=P(c2ccccc2)(c2ccccc2)c2ccccc2)cc(=O)n1C | > 100 µM | – | – | > 100 µM | > 100 µM | > 100 µM | > 100 | – | – | – | –
23 | COC1(CC[C@@H](C)COC2OC(CO)C(O)C(O)C2O)O[C@H]2C[C@H]3[C@@H]4CC=C5C[C@@H](OC6OC(CO)C(OC7OC(C)C(O)C(O)C7O)C(O)C6OC6OC(C)C(O)C(O)C6O)CC[C@]5(C)[C@H]4CC[C@]3(C)[C@H]2[C@@H]1C (stereo partly drawn) | 4.31 µM | 5.09 µM | 1.92 µM | 5.45 µM | 2.61 µM | 6.66 µM | 10.9 | 1.61 | 4.08 | 1.96 | 1.25
24 | CC(C)(C)OC(=O)NC1CCCC1C(=O)C1=CCCC1 (stereo not drawn) | > 100 µM | – | – | > 100 µM | – | > 100 µM | > 100 | – | – | – | –
25 | C[C@]12C=CC(=O)C=C1CC[C@@H]1[C@@H]2CC[C@@]2(C)[C@H]1CC[C@]2(O)C(N)=O | > 100 µM | > 100 µM | – | > 100 µM | – | > 100 µM | > 100 | – | – | – | –
26 | O=C1N=C2SC=C(NC(=S)Nc3ccccc3)N2NC12c1ccccc1-c1ccccc12 | – | > 10 µM | – | > 10 µM | > 10 µM | > 10 µM | > 10 | – | – | – | –
27 | Nc1nc(NNc2cccc(F)c2)cc(=O)[nH]1 | 42.9 µM | > 100 µM | – | – | – | > 100 µM | – | – | – | – | –
28 | CN(C)CCN(C)P12(Oc3ccccc3O1)Oc1c(Cl)c(Cl)c(Cl)c(Cl)c1O2 | > 100 µM | > 100 µM | – | – | – | > 100 µM | > 100 | – | – | – | –
29 | COC(=O)C1(NC(=O)C(Cc2ccccc2)N(C(=O)OC(C)(C)C)C(=O)OC(C)(C)C)CCCC1 (stereo not drawn) | > 100 µM | – | – | – | – | > 100 µM | > 100 | – | – | – | –
30 | CCOC1OC(CO)C(O)CC1n1ccc(=O)[nH]c1=O (stereo not drawn) | > 100 µM | > 100 µM | – | > 100 µM | > 100 µM | > 100 µM | > 100 | – | – | – | –
31 | COc1ccc(/C=c2\c(=O)[nH]c3nc4ccccc4c(=O)n23)cc1 | > 100 µM | > 100 µM | – | > 100 µM | > 100 µM | > 100 µM | > 100 | – | – | – | –
